# Measured values as given in ChEMBL document CHEMBL4619711, “Medicinal Chemistry of Inhibiting RING-Type E3 Ubiquitin Ligases” (J Med Chem, 2020).
# Assays:
# [1] = Plasma clearance in mouse at iv dose; type: ADME, organism-based
# [2] = Oral bioavailability in mouse; type: ADME, organism-based; details: in vivo
# [3] = target: T1, E3 ubiquitin-protein ligase XIAP (Homo sapiens, UniProt P98170); test: Inhibition of XIAP-BIR2 domain (unknown origin)
# [4] = target: T1, E3 ubiquitin-protein ligase XIAP; test: Inhibition of XIAP-BIR3 domain (unknown origin)
# SJSA-1 = test: cells; details: Homo sapiens
# [5] = target: von Hippel-Lindau disease tumor suppressor (Homo sapiens, UniProt P40337); test: Inhibition of VHL (unknown origin) by fluorescence polarization assay
# [6] = Stability in rat blood assessed as parent compound remaining after 4 hrs; type: ADME, tissue-based; details: read-out: Stability
# T1 sequence (P98170 whole entry, the tested form may be a part): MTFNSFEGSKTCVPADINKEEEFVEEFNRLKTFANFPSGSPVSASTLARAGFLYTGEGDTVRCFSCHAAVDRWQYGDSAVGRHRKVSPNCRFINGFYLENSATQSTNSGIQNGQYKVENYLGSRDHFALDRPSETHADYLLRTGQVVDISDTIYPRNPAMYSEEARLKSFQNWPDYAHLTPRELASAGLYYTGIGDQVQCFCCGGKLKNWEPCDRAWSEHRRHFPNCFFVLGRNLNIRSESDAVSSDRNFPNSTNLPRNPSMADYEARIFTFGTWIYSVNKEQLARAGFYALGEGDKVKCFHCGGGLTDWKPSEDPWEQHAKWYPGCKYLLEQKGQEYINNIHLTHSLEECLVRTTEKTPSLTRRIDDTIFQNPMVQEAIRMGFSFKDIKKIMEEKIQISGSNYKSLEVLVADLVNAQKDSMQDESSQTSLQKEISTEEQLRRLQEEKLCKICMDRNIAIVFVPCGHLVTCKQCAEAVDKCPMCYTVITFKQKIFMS
# von Hippel-Lindau disease tumor suppressor, sequence (P40337 whole entry): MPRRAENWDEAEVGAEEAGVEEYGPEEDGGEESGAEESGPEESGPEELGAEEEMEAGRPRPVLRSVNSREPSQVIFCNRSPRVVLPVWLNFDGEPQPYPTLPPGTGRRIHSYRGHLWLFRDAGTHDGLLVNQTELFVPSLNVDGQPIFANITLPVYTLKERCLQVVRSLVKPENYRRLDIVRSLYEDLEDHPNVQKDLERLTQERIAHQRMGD
clearance [1] [mL/min/kg],IC50 [3] [nM],IC50 [4] [nM],remaining at 4 h [6] [%],SMILES,also measured
4.3,–,–,–,CN[C@@H](C)C(=O)N[C@@H]1C(=O)N(Cc2c(C)ccc3ccccc23)c2ccc(C#N)cc2N(C(C)=O)[C@H]1C,bioavailability [2]: 28%
41,39,3100,–,CN[C@@H](C)C(=O)NC1C(=O)N(Cc2c(C#N)n(-c3ccccc3C#N)c3ccccc23)c2ccccc2CC12CCOCC2 (some centres undefined),–
–,–,–,–,CC(C)(C)C[C@@H]1N[C@@H](C(=O)N[C@H]2CC[C@H](O)CC2)[C@H](c2cccc(Cl)c2F)[C@@]12C(=O)Nc1cc(Cl)ccc12,IC50 (SJSA-1): 92 nM
–,–,–,–,Cc1ncsc1-c1ccc(CNC(=O)[C@@H]2C[C@@H](O)CN2C(=O)c2cccc(N)c2C)cc1,IC50 [5]: 670 nM
521,–,–,7,CN[C@@H](C)C(=O)N[C@H]1COc2ccccc2N(Cc2c(OC)ccc3cc(Br)ccc23)C1=O,–
60,65,24000,88,CN[C@@H](C)C(=O)NC1C(=O)N(Cc2c(OC)ccc3cc(Br)ccc23)c2ccccc2CC12CCOCC2 (some centres undefined),–
–,–,–,–,CC(C)(C)C[C@@H]1N[C@@H](C(=O)NCCN2CCOCC2)[C@H](c2cccc(Cl)c2F)[C@@]12C(=O)Nc1cc(Cl)ccc12,IC50 (SJSA-1): 500 nM
–,–,–,–,Cc1cc(CC(=O)N2C[C@H](O)C[C@H]2C(=O)NCc2ccccc2Cl)on1,IC50 [5]: 117000 nM

SMILES,clearance [1] [mL/min/kg],IC50 [3] [nM],IC50 [4] [nM],remaining at 4 h [6] [%],also measured
CN[C@@H](C)C(=O)N[C@H]1CCc2ccccc2N(Cc2c(OC)ccc3cc(Br)ccc23)C1=O,155,194,> 54000,40,–
